Assay results from ChEMBL document CHEMBL1130982, “Diversity of C-linked neoglycopeptides for the exploration of subsite-assisted carbohydrate binding interactions” (Bioorg Med Chem Lett, 1998).

Assay: Inhibitory activity against binding of horseradish peroxidase labelled Maclura pomifera, isolated from the seeds of osage orange tree to poly (acrylamide-co-allyl alpha-Galactopyranoside

Compound | IC50 [µM]
CC(=O)N[C@@H](CCCCNC(=O)c1cc(NC(=O)CNC(=O)[C@H](C)NC(=O)C[C@H]2O[C@H](CO)[C@H](O)[C@H](O)[C@H]2O)cc(NC(=O)CNC(=O)[C@@H](C)NC(=O)C[C@H]2O[C@H](CO)[C@H](O)[C@H](O)[C@H]2O)c1)C(=O)NCC(=O)NCc1ccccc1 | 2840
CCN(CC)C(=O)CC1OC(CO)C(O)C(O)C1O (stereo unspecified) | 2570
CC(=O)N[C@@H](CCCCNC(=O)CC1OC(CO)C(O)C(O)C1O)C(=O)NCC(N)=O (stereo partly specified) | 4180
CCN(CC)C(=O)CNC(=O)[C@H](CCCCNC(=O)CN(CCC1OC(CO)C(O)C(O)C1O)C(=O)CC1OC(CO)C(O)C(O)C1O)NC(C)=O (stereo partly specified) | 4310

The next molecules have a lower IC50 than those just listed; values first:

IC50 [µM] | Compound
1500 | CC(=O)N[C@@H](CCCCNC(=O)c1cc(NC(=O)CNC(=O)[C@H]2CCCN2C(=O)C[C@@H]2O[C@@H](CO)[C@H](O)[C@H](O)[C@@H]2O)cc(NC(=O)CNC(=O)[C@@H]2CCCN2C(=O)C[C@H]2O[C@@H](CO)[C@H](O)[C@H](O)[C@@H]2O)c1)C(=O)NCC(=O)NCc1ccccc1
1480 | CC(=O)N[C@@H](CCCCN(CCC1OC(CO)C(O)C(O)C1O)CCC1OC(CO)C(O)C(O)C1O)C(=O)NCC(N)=O (stereo partly specified)
